The text below walks through data of US20070128217A1 (priority 2003, published 2007).

The test system of assay [1] is control sera (pooled serum of ten healthy LUMC hospital workers; commercial negative donor pooled serum from the Dutch bloodbank). It is filed as binding, human.
The subject of assay [2] is rabbit serum obtained by immunizing a rabbit with the SARS-CoV strain Frankfurt 1. It is filed as binding. Also noted: Binding of a rabbit serum to linear peptides / Binding of a rabbit serum to looped peptides / Rabbit serum linear peptides / Rabbit serum looped peptides / Binding of a rabbit serum to linear peptides of protein N of SARS-CoV Urbani (Rabbit serum linear peptides) / Binding of a rabbit serum to looped/cyclic peptides of protein N of SARS-CoV Urbani (Rabbit serum looped peptides): unit not given here.

Assay [3] deals with antibodies in sera from SARS patients (sera 1a, 1b, 2, 6, 37, 62, London, SARS-yellow, SARS-green). It is filed as binding, human.

On to YSFVSEETGTLIVNS, for which, in assay [1], the “Binding of Control Serum Blood-Bank to Looped peptides” value is recorded as 0.6, the “Binding of Control serum Blood-bank to linear peptides” value was 0.7, the “Binding of Control serum LUMC to linear peptides” value was found to be 1.0 and the “Binding of Control serum LUMC to looped peptides” value is given as 0.8. Moreover, in assay [2], the “Binding of a rabbit serum to linear peptides” value is 0.2 and the “Binding of a rabbit serum to looped peptides” value amounted to 0.4. Moreover, in assay [3], the “Binding of serum 1a to linear peptides of protein E of SARS-CoV Urbani” value turned out to be 0.8, the “Binding of serum 1a to looped/cyclic peptides of protein E of SARS-CoV Urbani” value was determined as 0.7, the “Binding of serum 1b to linear peptides of protein E of SARS-CoV Urbani” value was found to be 0.7 and the “Binding of serum 1b to looped/cyclic peptides of protein E of SARS-CoV Urbani” value worked out at 0.5. Moreover, in assay [3], the “Binding of serum 2 to linear peptides of protein E of SARS-CoV Urbani” value is listed as 0.5, the “Binding of serum 2 to looped/cyclic peptides of protein E of SARS-CoV Urbani” value is given as 0.7, the “Binding of serum 6 to linear peptides of protein E of SARS-CoV Urbani” value is given as 0.5 and the “Binding of serum 6 to looped/cyclic peptides of protein E of SARS-CoV Urbani” value is 0.4. In assay [3], the “Binding of serum 37 to linear peptides of protein E of SARS-CoV Urbani” value is listed as 0.6, the “Binding of serum 37 to looped/cyclic peptides of protein E of SARS-CoV Urbani” value turned out to be 0.8, the “Binding of serum 62 to linear peptides of protein E of SARS-CoV Urbani” value was 0.5 and the “Binding of serum 62 to looped/cyclic peptides of protein E of SARS-CoV Urbani” value was found to be 0.8. In assay [3], the “Binding of serum London to linear peptides of protein E of SARS-CoV Urbani” value was 0.7, the “Binding of serum London to looped/cyclic peptides of protein E of SARS-CoV Urbani” value was determined as 0.4, the “Binding of serum SARS-green to linear peptides of protein E of SARS-CoV Urbani” value was found to be 0.7 and the “Binding of serum SARS-green to looped/cyclic peptides of protein E of SARS-CoV Urbani” value is on record as 0.4. In addition, in assay [3], the “Binding of serum SARS-yellow to linear peptides of protein E of SARS-CoV Urbani” value is listed as 0.6 and the “Binding of serum SARS-yellow to looped/cyclic peptides of protein E of SARS-CoV Urbani” value is 0.7.

As for SFVSEETGTLIVNSV, in assay [1], the “Binding of Control Serum Blood-Bank to Looped peptides” value is recorded as 0.7, the “Binding of Control serum Blood-bank to linear peptides” value is listed as 0.9, the “Binding of Control serum LUMC to linear peptides” value was determined as 0.6 and the “Binding of Control serum LUMC to looped peptides” value amounted to 0.7. Besides, in assay [2], the “Binding of a rabbit serum to linear peptides” value was determined as 0.5 and the “Binding of a rabbit serum to looped peptides” value came out at 0.1. For the same sequence, in assay [3], the “Binding of serum 1a to linear peptides of protein E of SARS-CoV Urbani” value is reported as 0.9, the “Binding of serum 1a to looped/cyclic peptides of protein E of SARS-CoV Urbani” value stood at 0.5, the “Binding of serum 1b to linear peptides of protein E of SARS-CoV Urbani” value was 0.7 and the “Binding of serum 1b to looped/cyclic peptides of protein E of SARS-CoV Urbani” value is 0.4. In addition, in assay [3], the “Binding of serum 2 to linear peptides of protein E of SARS-CoV Urbani” value is 0.6, the “Binding of serum 2 to looped/cyclic peptides of protein E of SARS-CoV Urbani” value is 0.5, the “Binding of serum 6 to linear peptides of protein E of SARS-CoV Urbani” value is 0.6 and the “Binding of serum 6 to looped/cyclic peptides of protein E of SARS-CoV Urbani” value was 0.4. For the same sequence, in assay [3], the “Binding of serum 37 to linear peptides of protein E of SARS-CoV Urbani” value came out at 0.8, the “Binding of serum 37 to looped/cyclic peptides of protein E of SARS-CoV Urbani” value is 0.6, the “Binding of serum 62 to linear peptides of protein E of SARS-CoV Urbani” value turned out to be 0.8 and the “Binding of serum 62 to looped/cyclic peptides of protein E of SARS-CoV Urbani” value is 0.7. Also, in assay [3], the “Binding of serum London to linear peptides of protein E of SARS-CoV Urbani” value worked out at 0.5, the “Binding of serum London to looped/cyclic peptides of protein E of SARS-CoV Urbani” value is given as 0.5, the “Binding of serum SARS-green to linear peptides of protein E of SARS-CoV Urbani” value is 0.5 and the “Binding of serum SARS-green to looped/cyclic peptides of protein E of SARS-CoV Urbani” value was 0.4. Also, in assay [3], the “Binding of serum SARS-yellow to linear peptides of protein E of SARS-CoV Urbani” value was 0.1 and the “Binding of serum SARS-yellow to looped/cyclic peptides of protein E of SARS-CoV Urbani” value is on record as 0.7.

For TLAILTALRLCAYCC, in assay [1], the “Binding of Control Serum Blood-Bank to Looped peptides” value stood at 0.7, the “Binding of Control serum Blood-bank to linear peptides” value is on record as 0.6, the “Binding of Control serum LUMC to linear peptides” value amounted to 0.4 and the “Binding of Control serum LUMC to looped peptides” value amounted to 0.8. In assay [2], the “Binding of a rabbit serum to linear peptides” value is reported as 0.7 and the “Binding of a rabbit serum to looped peptides” value was found to be 0.4. For the same sequence, in assay [3], the “Binding of serum 1a to linear peptides of protein E of SARS-CoV Urbani” value was 0.8, the “Binding of serum 1a to looped/cyclic peptides of protein E of SARS-CoV Urbani” value worked out at 0.7, the “Binding of serum 1b to linear peptides of protein E of SARS-CoV Urbani” value is 0.9 and the “Binding of serum 1b to looped/cyclic peptides of protein E of SARS-CoV Urbani” value was found to be 0.6. Besides, in assay [3], the “Binding of serum 2 to linear peptides of protein E of SARS-CoV Urbani” value was 0.3, the “Binding of serum 2 to looped/cyclic peptides of protein E of SARS-CoV Urbani” value amounted to 0.7, the “Binding of serum 6 to linear peptides of protein E of SARS-CoV Urbani” value is reported as 0.6 and the “Binding of serum 6 to looped/cyclic peptides of protein E of SARS-CoV Urbani” value came out at 0.7. Besides, in assay [3], the “Binding of serum 37 to linear peptides of protein E of SARS-CoV Urbani” value stood at 0.7, the “Binding of serum 37 to looped/cyclic peptides of protein E of SARS-CoV Urbani” value worked out at 0.7, the “Binding of serum 62 to linear peptides of protein E of SARS-CoV Urbani” value was determined as 0.7 and the “Binding of serum 62 to looped/cyclic peptides of protein E of SARS-CoV Urbani” value is listed as 0.7. In assay [3], the “Binding of serum London to linear peptides of protein E of SARS-CoV Urbani” value came out at 0.5, the “Binding of serum London to looped/cyclic peptides of protein E of SARS-CoV Urbani” value turned out to be 0.5, the “Binding of serum SARS-green to linear peptides of protein E of SARS-CoV Urbani” value was determined as 0.5 and the “Binding of serum SARS-green to looped/cyclic peptides of protein E of SARS-CoV Urbani” value was 0.5. Also, in assay [3], the “Binding of serum SARS-yellow to linear peptides of protein E of SARS-CoV Urbani” value is listed as 0.2 and the “Binding of serum SARS-yellow to looped/cyclic peptides of protein E of SARS-CoV Urbani” value was found to be 0.9.

Consider LAFVVFLLVTLAILT, for which, in assay [1], the “Binding of Control Serum Blood-Bank to Looped peptides” value came to 0.8, the “Binding of Control serum Blood-bank to linear peptides” value was found to be 0.6, the “Binding of Control serum LUMC to linear peptides” value came to 0.5 and the “Binding of Control serum LUMC to looped peptides” value is reported as 0.6. Also, in assay [2], the “Binding of a rabbit serum to linear peptides” value came to 0.5 and the “Binding of a rabbit serum to looped peptides” value stood at 0.2. In assay [3], the “Binding of serum 1a to linear peptides of protein E of SARS-CoV Urbani” value is on record as 0.8, the “Binding of serum 1a to looped/cyclic peptides of protein E of SARS-CoV Urbani” value is listed as 0.5, the “Binding of serum 1b to linear peptides of protein E of SARS-CoV Urbani” value worked out at 0.5 and the “Binding of serum 1b to looped/cyclic peptides of protein E of SARS-CoV Urbani” value was found to be 0.5. Further, in assay [3], the “Binding of serum 2 to linear peptides of protein E of SARS-CoV Urbani” value worked out at 0.5, the “Binding of serum 2 to looped/cyclic peptides of protein E of SARS-CoV Urbani” value turned out to be 0.5, the “Binding of serum 6 to linear peptides of protein E of SARS-CoV Urbani” value was determined as 0.7 and the “Binding of serum 6 to looped/cyclic peptides of protein E of SARS-CoV Urbani” value worked out at 0.5. In assay [3], the “Binding of serum 37 to linear peptides of protein E of SARS-CoV Urbani” value turned out to be 0.7, the “Binding of serum 37 to looped/cyclic peptides of protein E of SARS-CoV Urbani” value is 0.6, the “Binding of serum 62 to linear peptides of protein E of SARS-CoV Urbani” value came to 0.7 and the “Binding of serum 62 to looped/cyclic peptides of protein E of SARS-CoV Urbani” value came to 0.6. Moreover, in assay [3], the “Binding of serum London to linear peptides of protein E of SARS-CoV Urbani” value is reported as 0.6, the “Binding of serum London to looped/cyclic peptides of protein E of SARS-CoV Urbani” value is on record as 0.5, the “Binding of serum SARS-green to linear peptides of protein E of SARS-CoV Urbani” value is 0.3 and the “Binding of serum SARS-green to looped/cyclic peptides of protein E of SARS-CoV Urbani” value was determined as 0.5. For the same sequence, in assay [3], the “Binding of serum SARS-yellow to linear peptides of protein E of SARS-CoV Urbani” value was determined as 0.1 and the “Binding of serum SARS-yellow to looped/cyclic peptides of protein E of SARS-CoV Urbani” value is reported as 0.4.
